Laboratory results published in patent publication US20150374673A1, “Combination Therapy for the Treatment of Nosocomial Pneumonia” (priority 2013, published 2015).
Read-outs that look alike come from different tables or passages of the source.

What was measured:
[1] = system: Gram-negative isolates; test: MIC alone compared with MIC in presence of Cmax and 0.5×Cmax of vancomycin and linezolid, all Gram-negative isolates; assay type: cell-based; conditions: with Cmax and 0.5×Cmax of vancomycin and linezolid
Procedure: (§1) Initial MIC data were determined by microbroth dilution methods as recommended by CLSI (2012b). Checkerboards were made in accordance with the method given by Pillai et. al., ? Antimicrobial Combinations in Antibiotics, LABORATORY MEDICINE (Lorian Ed., 3rd Ed. (2003)) p. 365-440 as per standard microbroth dilution tests but with agents in combination. […] A final avibactam concentration of 4 mg/L was used throughout the study. Antibacterial agents were combined into microtitre plates using the Evolution III liquid handling system.

[2] = system: E. cloacae; test: Checkerboard assay, mean FICI; assay type: cell-based
Procedure: (§2) All MIC determinations including those performed in the checkerboard assay were done in cation-adjusted Mueller-Hinton broth (purchased from Becton Dickinson, Oxford UK).
as §1
(§3) Checkerboard plates were inoculated and incubated in accordance with CLSI guidelines (2012b) at 35±2° C. in ambient air for 16-20 h. MICs were recorded the following day as the lowest concentration or combination of concentrations required to inhibit all visible growth. From the MIC data, FICIs were calculated for each checkerboard according to the method of Meletiadis et. al., Defining Fractional Inhibitory Concentration Index Cutoffs for Additive Interactions Based on Self-Drug Additive Combinations, Monte Carlo Simulation Analysis and in vitro-in vivo Correlation Data for Antifungal Drug Combinations Against Aspergillus fumigatus, AAC 54:602-09 (2010).
(§4) FICI=FICA+FICB=(CA/MICA)+(CB/MICB)
(§5) As each checkerboard gives a number of FICI values, an arithmetic mean is calculated from all values to give the mean FICI for two agents combined against one isolate. Mean FICIs were interpreted by the following criteria given by Odds (2003) which are now the accepted criteria by most journals: […]

[3] = system: K. pneumoniae; test: Checkerboard assay, mean FICI; assay type: cell-based
Procedure: as §2, §1, §3, §4, §5

[4] = Serum and ELF pharmacokinetics of ceftazidime regimens (human simulated and directed ELF fT>MIC) in infected mice; assay type: in vivo, female ICR mice; conditions: MICs of 32 μg/mL; ceftazidime directed ELF fT>MIC regimen
Procedure: Confirmatory pharmacokinetic studies were undertaken in infected mice and pharmacodynamic analyses and an assessment of ELF fT>MIC was made from the resulting concentration-time profile.
It has been observed in surveillance studies that the MIC90 for ceftazidime-avibactam against P. aeruginosa is 8 μg/mL (10-12). Given this, there are few isolates with higher MICs and the number that would grow within the murine lung infection model is even less. […] Doses of the previous humanized regimen described above were […] throughout the dosing period and further pharmacokinetic studies were performed. […] Mice were euthanized and serum and BAL samples were collected, as described above, at predetermined times.

[5] = system: Pseudomonas aeruginosa; test: MIC of ceftazidime-resistant P. aeruginosa strains, microdilution according to ISO guidelines; assay type: cell-based
Procedure: (§6) Seven well-characterized ceftazidime-resistant Pseudomonas aeruginosa strains, obtained from a variety of clinically relevant sources, were used in the experiments as shown in Table 1. MICs were taken from an earlier in vitro checkerboard study (Berkhout & Mouton 2013 CAZ-AVI-M1-061) and were determined by microdilution according to the ISO-guidelines (ISO 2006). This method is CLSI compatible.
as §6, with “[…].” for “Table 1.”, “determined in” for “taken from”, “(AstraZeneca study report #” for “(Berkhout & Mouton 2013”

[6] = system: all isolates (Enterobacteriaceae, P. aeruginosa, S. aureus, E. faecalis); test: Checkerboard assay, mean FICI over all isolates; assay type: cell-based
Procedure: as §2, §1, §3, §4, §5

[7] = with Col, Gram-negative isolates
[8] = with Lzd, Gram-positive isolates
[9] = with Van, Gram-positive isolates

With CC(C)(O/N=C(\C(=O)N[C@@H]1C(=O)N2C(C(=O)[O-])=C(C[n+]3ccccc3)CS[C@H]12)c1csc(N)n1)C(=O)O [ceftazidime, (6R,7R)-7-[[(2Z)-2-(2-amino-1,3-thiazol-4-yl)-2-(1-hydroxy-2-methyl-1-oxopropan-2-yl)oxyiminoacetyl]amino]-8-oxo-3-(pyridin-1-ium-1-ylmethyl)-5-thia-1-azabicyclo[4.2.0]oct-2-ene-2-carboxylate pentahydrate] the “MIC alone and in combination” value [1] was “remained within one doubling dilution in all cases”, the “Mean FICI” value ([2]; with Col, isolate 2 E. cloacae Derepressed AmpC) was 1.54 and the “Mean FICI” value ([2]; with Col, isolate 3 E. cloacae Derepressed AmpC) was 1.12. For the same molecule, the “Mean FICI” value ([2]; with Lev, isolate 2 E. cloacae Derepressed AmpC) was 0.99, the “Mean FICI” value ([2]; with Lev, isolate 3 E. cloacae Derepressed AmpC) was 0.81 and the “Mean FICI” value ([2]; with Tig, isolate 2 E. cloacae Derepressed AmpC) was 0.93. For the same molecule, the “Mean FICI” value ([2]; with Tig, isolate 3 E. cloacae Derepressed AmpC) was 1.05, the “Mean FICI” value ([2]; with Tob, isolate 3 E. cloacae Derepressed AmpC) was 0.73 and the “Mean FICI” value ([3]; with Col, isolate 10 K. pneumoniae TEM-4) was 0.85. The “Mean FICI” value ([3]; with Col, isolate 11 K. pneumoniae CTX-M-15) was 1.54, the “Mean FICI” value ([3]; with Col, isolate 12 K. pneumoniae SHV-12) was 1.40 and the “Mean FICI” value ([3]; with Col, isolate 14 K. pneumoniae KPC-3) was 1.05. The “Mean FICI” value ([3]; with Lev, isolate 9 K. pneumoniae Basal MICs) was 0.96, the “Mean FICI” value ([3]; with Lev, isolate 10 K. pneumoniae TEM-4) was 1.13 and the “Mean FICI” value ([3]; with Tig, isolate 11 K. pneumoniae CTX-M-15) was 0.94. For the same molecule, the “Mean FICI” value ([3]; with Tig, isolate 12 K. pneumoniae SHV-12) was 0.97, the “Mean FICI” value ([3]; with Tig, isolate 13 K. pneumoniae KPC-3) was 1.99 and the “Mean FICI” value ([3]; with Tig, isolate 14 K. pneumoniae KPC-3) was 0.74. For the same molecule, the “Mean FICI” value ([3]; with Tob, isolate 9 K. pneumoniae Basal MICs) was 1.55, the “Mean FICI” value ([3]; with Tob, isolate 10 K. pneumoniae TEM-4) was 0.64 and the “Mean FICI” value ([3]; with Tob, isolate 11 K. pneumoniae CTX-M-15) was 1.05. For the same molecule, the “Mean FICI” value ([3]; with Tob, isolate 12 K. pneumoniae SHV-12) was 1.04, the “Mean FICI” value ([3]; with Tob, isolate 13 K. pneumoniae KPC-3) was 1.12 and the “Mean FICI” value ([3]; with Tob, isolate 14 K. pneumoniae KPC-3) was 0.91. For the same molecule, the “Mean FICI” value ([3]; with Tob, isolate 15 K. pneumoniae KPC-2) was 1.05, the “ELF fT>MIC” value [4] was 12% and the MIC ([5]; P. aeruginosa isolate no. 1, CAZ-AVI determined at 4 mg/L avibactam) was 128 µg/mL. For the same molecule, the MIC ([5]; P. aeruginosa isolate no. 11, CAZ-AVI determined at 4 mg/L avibactam) was 128 µg/mL, the MIC ([5]; Pseudomonas aeruginosa) was 128 µg/mL and the MIC ([5]; Pseudomonas aeruginosa, P. aeruginosa isolate no. 3, CAZ-AVI determined at 4 mg/L avibactam, read-out: MIC) was 64 µg/mL. For the same molecule, the MIC ([5]; Pseudomonas aeruginosa, P. aeruginosa isolate no. 7, CAZ-AVI determined at 4 mg/L avibactam, read-out: MIC) was 64 µg/mL, the MIC ([5]; Pseudomonas aeruginosa, P. aeruginosa isolate no. 18, CAZ-AVI determined at 4 mg/L avibactam, read-out: MIC) was 32 µg/mL and the MIC ([5]; Pseudomonas aeruginosa, P. aeruginosa isolate no. 19, CAZ-AVI determined at 4 mg/L avibactam, read-out: MIC) was 64 µg/mL. The “interaction, synergistic or antagonistic, with any other antibacterial agent” value ([6]; tobramycin, levofloxacin, vancomycin, linezolid, tigecycline, colistin) was “No interaction”, the “Mean FICI range high” value [6, 7] was 1.66 and the “Mean FICI range low” value [6, 7] was 0.85. The “Mean FICI range high” value ([6]; with Lev, all isolates) was 1.33, the “Mean FICI range low” value ([6]; with Lev, all isolates) was 0.78 and the “Mean FICI range high” value [6, 8] was 1.64. The “Mean FICI range low” value [6, 8] was 0.99, the “Mean FICI range high” value ([6]; with Tig, all isolates) was 1.99 and the “Mean FICI range low” value ([6]; with Tig, all isolates) was 0.73. The “Mean FICI range high” value ([6]; with Tob, all isolates) was 1.60, the “Mean FICI range low” value ([6]; with Tob, all isolates) was 0.64 and the “Mean FICI range high” value [6, 9] was 1.63. The “Mean FICI range low” value [6, 9] was 0.99.
